What was measured:
telomerase = assay: Quantitative telomerase detection (telomeric repeat formation + PCR) in skin fibroblasts (donor four AG7308, donor one AG14271) with or without UVB; assay type: cell-based, human
Description: Culture media: Cells were grown in Minimal Essential Medium supplemented with 10% fetal bovine serum, 2 mM L-glutamine, 2 mM Glutamax I, and 1× MEM non-essential amino acids solution. Cells were washed in the same medium, but without the fetal bovine serum. […] All cultures were incubated at 37° C. with 5% CO2 in a humidified chamber. Seeding of cells: […] Three wells were seeded per test condition or control. Experimental phase: On Day 3, wells were washed 1× with 2 mls medium, fed back 2 mls medium without fetal bovine serum and preincubated for 30-60 minutes before challenge with test or control conditions. […] The green tea polyphenols used were Premier Green Tea Extract Lot #10783, obtained from Pharma Cosmetix Research, LLC (Richmond, Va.). The Green Tea extract was measured into a stock solution of the above described Minimal Essential Media+1% Fetal Bovine Serum in a w/v ratio and then serially diluted into the testing concentrations with MEM+1% Fetal Bovine Serum. Three conditions were tested: […] UVB exposed and unexposed cells without test condition were used as controls. […] Cells from each test and control parameter were then trypsinized, collected by centrifugation, washed 3 times in PBS, and a cell count made using a hemacytometer. The final pellet was stored at −80° C. until processed further. UVB exposure: […] Cells were exposed from the bottom of the culture dish. The UVB dose delivered to the cells was adjusted for interference from the plastic in the culture dish. […] Extract from the cell pellets stored at −80 C post experimental phase was prepared for PCR according to the instructions in the Allied Biotech, Inc, Quantitative Telomerase Detection Kit. Briefly, pellets were thawed and immediately resuspended in 200 ul 1× Lysis Buffer per […]. The suspension was incubated on ice for 30 minutes, then microcentrifuged at 12,000×g for 30 minutes at 4° C. The supernatant was aliquoted and stored at −80° C. Detection of Telomerase: The extract from the cells allows for determination of telomerase activity by coupling the extract's ability to form telomeric repeats onto an oligonucleotide substrate and the resultant extended product are amplified using Polymerase Chain Reaction. These products are then visualized with SYBR green a fluorescent detection agent that emits green fluorescence when bound to the double stranded DNA product. […] The samples were run in a BioRad iCycler for 20 minutes at 25° C. to complete the telomerase reaction. The PCR initial activation step followed immediately and was of 10 minute duration at […]. […] The SYBR green detection occurred during the extension phase. Telomerase Detection Results: […] The raw analysis is provided in DATA TABLE 1. […] Culture media: Cells were grown in Minimal Essential Medium supplemented with 10% fetal bovine serum, 2 mM L-glutamine, 2 mM Glutamax I, and 1×MEM non-essential amino acids solution. Cells were washed in the same medium, but without the fetal bovine serum. […] All cultures were incubated at 37° C. with 5% CO2 in a humidified chamber. Seeding of cells: […] Three wells were seeded per test condition or control. Experimental phase: On Day 3, wells were washed 1× with 2 mls medium, fed back 2 mls medium without fetal bovine serum and preincubated for 30-60 minutes before challenge with test or control conditions. […] The 1% stock solution was also diluted with MEM+1% FBS until the testing concentrations were reached. Three conditions were tested: […] UVB exposed and unexposed cells without test condition were used as controls. […] Cells from each test and control parameter were then trypsinized, collected by centrifugation, washed 3 times in PBS, and a cell count made using a hemacytometer. The final pellet was stored at −80° C. until processed further. UVB exposure: […] Cells were exposed from the bottom of the culture dish. The UVB dose delivered to the cells was adjusted for interference from the plastic in the culture dish. […]

[1] = test system: TERT, TPP1, TERF1, TERF2, TINF2, POT1; assay: qPCR primer assays of telomere complex genes in skin fibroblasts AG07999; assay type: cell-based, human; details: 24 hours; 1 uM idebenone, 0.001% coffee cherry; FIG. 7
Description: Cell cultures: A human skin fibroblast cell culture was obtained through the Coriell Cell Repository from the National Institute on Aging Cell Repository. The culture, AG07999, was established from a biopsy of a person. Culture media: Cells were grown in Minimal Essential Medium supplemented with 10% fetal bovine serum, 2 mM L-glutamine, 2 mM Glutamax I. […] All cultures were incubated at 37° C. with 5% CO2 in a humidified chamber. Seeding of cells: […] Experimental phase: […] On Day 5 after 24 hours of exposure to test conditions, the cells were isolated and the RNA isolated using the RT^2q PCR-grade RNA isolation kit (Superarray Bioscience Corporation). […] The RNA was quantified and examined for purity using the 260/280 nm read method in a μQuant spectrophotometer before use in the array. Performance of the qPCR Primer Assays: […] The assay was performed in compliance with manufacturer's guidelines and by recommended manufacturer's protocol as can be found on the World Wide Web at superarray.com/Manual/realtimePCR.pdf. […] Any values out of range of the threshold cycles or inconsistent within the assay were discarded from analysis. qPCR Primer Assay results: The results from assays were determined using the delta CT method, which uses comparisons of control genes and threshold cycles of genes of interest to generate relative expression values (this process is handled by the GeneX package).

For `COC1=C(OC)C(=O)C(CCCCCCCCCCO)=C(C)C1=O` [Idebenone, 6-(10-hydroxydecyl)-2,3-dimethoxy-5-methyl-1,4-benzoquin-one], the Level of telomerase (telomerase; donor four UVB + agent 4 hr, compared to UVB Tx Control) was −1.07, the Level of telomerase (telomerase; donor four UVB + agent 4 hr, compared to UnTx Control) was 90.51 and the Level of telomerase (telomerase; donor four UVB + agent Continuous, compared to UVB Tx Control) was −1.00. The Level of telomerase (telomerase; donor four UVB + agent Continuous, compared to UnTx Control) was 97.01, the “less telomerase activity than untreated cells” value (telomerase; donor four cells given Idebenone) was “roughly 53%” and the telomerase activity (telomerase; donor four cells given Idebenone and 1 MED UVB vs UVB stressed cells alone) was −1.7 fold. For the same compound, the telomerase activity (telomerase; donor four cells given Idebenone and 1 MED UVB vs untreated cells) was −2.4 fold, the Level of telomerase (telomerase; donor four idebenone Vs. person idebenone 4 hr) was 1.46 and the telomerase activity (telomerase; donor one cells given Idebenone and 1 MED UVB vs UVB treated age matched controls) was −2.65 fold. The telomerase activity (telomerase; donor one cells given Idebenone and 1 MED UVB vs untreated controls) was “roughly −2.61 fold”, the “telomerase activity (summary in words)” value (telomerase; stressed (UVB) and unstressed cells) was “decreased level of telomerase activity” and the TERF1 expression level [1] was “effected”. The TERF2 expression level [1] was “effected”.
